Measurements from US20230304010A1, “COMPOSITIONS AND METHODS FOR TREATING VIRAL INFECTIONS” (priority 2020, published 2023).
Several values for one entry are separate records, joined by “and”; a condition that tells them apart may be missing. Equal values may be shown once. Read-outs that look alike come from different tables or passages of the source.

Key:
SARS-CoV-2 [1] = test system: SARS-CoV-2
SARS-CoV-2 [2] = test system: SARS-CoV-2; remark: listed apart in the source
[3] = Lung and liver toxicity studies after intratracheal instillation
Method: Single dose of peptides or peptide/siRNA complexes were administrated via intratracheal instillation (200 μg) (Table 20). Saline solution was used as negative control. Samples were collected 12, 24, 48 and 72 hr post administration.
The body weight of the mice were recorded before intratracheal instillation (day 0), at day1, day 2 and before being sacrificed (day 3). The lung, liver, heart, kidney and brain were collected at day 3 and organ index were determined.
Bronchoalveolar lavage (BAL) were performed 2 days after instillation. The percentage of the cells, the total protein and level of LDH in the BAL were analyzed.
AST and ALT levels in the plasma were assayed 2 days after instillation.

[4] = Nanoparticle formation of peptides with ADGN-106: mean size and polydispersity (Zetasizer); type: physicochemical; conditions: 25° C.; for Mean Size (nm): peptide/ADGN-106 complexes; for PI: polydispersity index of peptide/ADGN-106 complexes
Description: We then tested the ability of the different peptides to form nanoparticle organization in the presence of ADGN-106 or ADGN-100 peptide. […] Peptides were complexed with 5 or 10 molar excess of ADGN-106.

SARS-CoV-2 [5] = assay: microbe, parasite or virus in culture
Vero-6 cells = assay: Cellular toxicity of siRNA/ADGN-100 complexes on Vero-6 cells, CellTiter-Glo; conditions: uninfected Vero-6 cells
SARS-CoV-2 [6] = assay: siRNA/ADGN-100 complexes on SARS-CoV2 virus infection, Vero E6 cells; type: cell-based
[7] = test system: SARS-CoV-2 Nucleocapsid gene; type: cell-based
SARS-CoV-2 nucleocapside = type: cell-based; conditions: read-out: IC50 of silencing response
in vitro = conditions: uninfected Vero E6 cells
[8] = In vivo lung biodistribution after intratracheal instillation (fluorescence imaging, confocal microscopy); conditions: administrated intratracheally
Method: To monitor DIVC-6 siRNA biodistribution, the siRNA was labelled with Cy-5.5.
In vivo lung biodistribution study was performed in healthy 4 weeks old male C57BL/6J mice. Single dose of peptides or peptide/siRNA complexes were administrated via intratracheal instillation (200 μg) (Table 20). The fluorescence was evaluated by non-invasive in vivo whole-body fluorescence imaging at T0, 1 h, 2 h, 6 h, 24 h, 48 h and 72 hr post injection. Fluorescence images were acquired with the IVIS kinetic system (PerkinElmer) (ex: 640±17 nm; em: 680±10 nm) and semi-quantitative data were obtained from the fluorescence images by using the Living image software (Caliper 2D).
Further analysis of the lung distribution of the different compounds was performed by confocal microscopy. Lungs were collected at 4 hr, 24 hr and 72 hr post administration, fixed in formaldehyde 4% in Glucose 5%. Tissues were stained with Mito tracker red and nucleus with Hoesch.

[9] = target: SARS-CoV-2 Spike: ACE2 interaction (UniProt P0DTC2+Q9BYF1); assay: biochemical; type: binding
[10] = target: ACE2:SARS-CoV-2 Spike interaction (UniProt P0DTC2+Q9BYF1); assay: biochemical; type: binding; conditions: IC50, SARS-COV2
[11] = read-out: SARS-COV2 IC50, original strain, second Table 19, siRNA complexed at molar ratio 1/20
[12] = treatments added to Vero-E6 immediately prior to virus infection, Table 16

Sequence of SARS-CoV-2 Spike: ACE2 interaction (Q9BYF1 18-740, one chain of several): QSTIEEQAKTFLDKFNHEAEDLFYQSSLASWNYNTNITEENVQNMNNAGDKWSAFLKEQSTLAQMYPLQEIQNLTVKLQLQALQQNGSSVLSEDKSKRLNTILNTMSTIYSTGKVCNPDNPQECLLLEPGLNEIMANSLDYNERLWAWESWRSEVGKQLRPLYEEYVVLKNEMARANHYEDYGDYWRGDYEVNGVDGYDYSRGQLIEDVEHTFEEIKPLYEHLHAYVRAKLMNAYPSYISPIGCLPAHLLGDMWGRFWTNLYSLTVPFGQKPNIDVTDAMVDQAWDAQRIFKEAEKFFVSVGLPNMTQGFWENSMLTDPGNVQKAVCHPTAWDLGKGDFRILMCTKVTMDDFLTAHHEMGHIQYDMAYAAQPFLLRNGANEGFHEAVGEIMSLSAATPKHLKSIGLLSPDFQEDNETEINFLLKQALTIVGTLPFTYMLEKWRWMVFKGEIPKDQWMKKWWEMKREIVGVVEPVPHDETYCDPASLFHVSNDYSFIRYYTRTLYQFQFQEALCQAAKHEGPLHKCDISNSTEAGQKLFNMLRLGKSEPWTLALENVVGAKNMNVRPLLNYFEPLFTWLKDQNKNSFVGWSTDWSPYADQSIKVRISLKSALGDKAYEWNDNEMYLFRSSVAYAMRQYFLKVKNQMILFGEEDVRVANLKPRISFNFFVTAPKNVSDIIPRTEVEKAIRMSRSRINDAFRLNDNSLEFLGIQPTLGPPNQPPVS
Sequence of ACE2:SARS-CoV-2 Spike interaction (Q9BYF1 18-740, one chain of several): as above

Q: With “Ac-N*GVEGFNK*Ava-LWRALWRLWRSLWRLLWK-NH2 [Seq17]” as the molecule, how does the IC50 (SARS-CoV-2 [1]; [11]) read?
A: 31.5 ± 12 nM

Q: And the IC50 (SARS-CoV-2 [1]; [12])?
A: 27.5 ± 11 nM

Q: What about the “Residual Infection (%)” value (SARS-CoV-2 [2]) of the same molecule?
A: 20%

Q: And the “inhibition of viral infection” value (SARS-CoV-2 [2])?
A: exhibit inhibition of viral infection

Q: And the “reduction of anti-viral activity by pre-incubation” value (SARS-CoV-2 [2])?
A: 2 fold

Q: What about the IC50 (SARS-CoV-2 [2]; read-out: D-IC50) of the same molecule?
A: 21.5 ± 12 nM

Q: And the IC50 (SARS-CoV-2 [2]; read-out: IC50, SARS-COV2)?
A: 31.5 ± 12 nM

Q: What about the IC50 (SARS-CoV-2 [2]; read-out: P-IC50) of the same molecule?
A: 57.2 ± 12 nM

Q: What about the “TD50” value (Vero E6 cells; uninfected Vero E6 cells) of the same molecule?
A: 340 ± 28 µM

Q: What about the “Cell Viability (%)” value (Vero E6 cells; uninfected Vero E6 cells, 0.5 µM) of the same molecule?
A: 85%

Q: What about the “percentage of the cells in bronchoalveolar lavage” value ([3]; 2 days after instillation, versus saline) of the same molecule?
A: slight increases of macrophages

Q: And the “lung and liver toxicity associated to treatment” value ([3]; mouse, in vivo)?
A: no lung and liver toxicity

Q: And the “Mean Size (nm)” value [4]?
A: 57 ± 4 nm

Q: And the PI [4]?
A: 0.17

Q: What does the source list for `CCN(CCO)CCCC(C)Nc1ccnc2cc(Cl)ccc12` (stereo not shown) [Hydroxy chloroquine]?
A: TD50 (Vero E6 cells; African green monkey): 190 ± 28 µM; IC50 (SARS-CoV-2 [5]; Severe acute respiratory syndrome coronavirus 2, Vero C1008, read-out: IC50 against SARS-CoV2 virus infection): 4400 ± 215 nM; IC50 (SARS-CoV-2 [5]; Severe acute respiratory syndrome coronavirus 2, Vero C1008, read-out: P-IC50 (nM)): 4700 nM; IC50 (SARS-CoV-2 [5]; Severe acute respiratory syndrome coronavirus 2, Vero, read-out: D-IC50 (nM)): 4400 ± 215 nM

Q: Which “TD50 (μM)” value (Vero-6 cells) does the source give for “GGCCAAACTGTCACTAAGAAA (chemistry not given here) [DIVC-6]” here?
A: 652 + 24 μM

Q: What about the IC50 (SARS-CoV-2 [1]; [11]) of the same molecule?
A: 68 nM

Q: What about the “fold stronger anti-SARS-CoV-2 activity than hydroxychloroquine sulfate” value (SARS-CoV-2 [6]) of the same molecule?
A: 64 fold

Q: What about the IC50 (SARS-CoV-2 [6]; siRNA complexed with ADGN-100 at molar ratio 1/20, added to Vero-E6 immediately prior to virus infection, read-out: IC50) of the same molecule?
A: 68 ± 12 nM

Q: What about the IC50 [7] of the same molecule?
A: 8.7 ± 2 nM

Q: And the IC50 (SARS-CoV-2 nucleocapside)?
A: 11 nM and 8.7 nM

Q: For `CC(=O)N[C@@H](CCC(=O)O)C(=O)N[C@@H](CCC(N)=O)C(=O)N[C@@H](C)C(=O)N[C@@H](CCCCN)C(=O)N[C@H](C(=O)N[C@@H](Cc1ccccc1)C(=O)N[C@@H](CC(C)C)C(=O)N[C@@H](CC(=O)O)C(=O)N[C@@H](CCCCN)C(=O)N[C@@H](Cc1ccccc1)C(=O)N[C@@H](CC(N)=O)C(=O)N[C@@H](Cc1c[nH]cn1)C(=O)N[C@@H](CCC(=O)O)C(=O)N[C@@H](C)C(=O)N[C@@H](CCC(=O)O)C(=O)N[C@@H](CC(=O)O)C(=O)N[C@@H](CC(C)C)C(=O)N[C@@H](Cc1ccccc1)C(=O)NCCCCCC(=O)N[C@@H](CC(C)C)C(=O)N[C@@H](Cc1c[nH]c2ccccc12)C(=O)N[C@@H](CCCNC(=N)N)C(=O)N[C@@H](C)C(=O)N[C@@H](CC(C)C)C(=O)N[C@@H](Cc1c[nH]c2ccccc12)C(=O)N[C@@H](CCCNC(=N)N)C(=O)N[C@@H](CC(C)C)C(=O)N[C@@H](Cc1c[nH]c2ccccc12)C(=O)N[C@@H](CCCNC(=N)N)C(=O)N[C@@H](CO)C(=O)N[C@@H](CC(C)C)C(=O)N[C@@H](Cc1c[nH]c2ccccc12)C(=O)N[C@@H](CCCNC(=N)N)C(=O)N[C@@H](CC(C)C)C(=O)N[C@@H](CC(C)C)C(=O)N[C@@H](Cc1c[nH]c2ccccc12)C(=O)N[C@@H](CCCCN)C(N)=O)[C@@H](C)O` [Seq33], which IC50 (SARS-CoV-2 [1]; [11]) is on record?
A: 21.7 ± 8 nM

Q: And the IC50 (SARS-CoV-2 [1]; [12])?
A: 22.9 ± 8 nM

Q: What about the “Residual Infection (%)” value (SARS-CoV-2 [2]) of the same molecule?
A: 15%

Q: And the “fold stronger anti-SARS-CoV-2 activity than hydroxychloroquine sulfate” value (SARS-CoV-2 [2])?
A: 250 fold

Q: What about the “increase of potency by pre-incubation with SARS CoV-2 prior infection” value (SARS-CoV-2 [2]) of the same molecule?
A: 2 factor

Q: And the “inhibition of viral infection” value (SARS-CoV-2 [2])?
A: exhibit inhibition of viral infection

Q: And the CC50 (in vitro)?
A: 510000 ± 31000 nM

Q: And the viability at 0.5 µM (in vitro)?
A: 94%

Q: And the “lung and liver toxicity associated to treatment” value ([3]; mouse, in vivo)?
A: no lung and liver toxicity

Q: And the “tolerability upon intratracheal administration” value ([3]; mouse, in vivo)?
A: well tolerated

Q: What about the “lung targeting and tissue penetration” value [8] of the same molecule?
A: significantly penetrate lung tissue

Q: And the “folds more potent than SBP-1-ADGN-106/ADGN-106 complex” value [9]?
A: 4 folds

Q: What about the “folds more potent than SBP-1 coupled to ADGN-106” value [9] of the same molecule?
A: 8 folds

Q: What about the “folds more potent than SBP-1 peptide/ADGN-106 complex” value [9] of the same molecule?
A: 35 folds

Q: What about the “folds more potent than free SBP-1” value [9] of the same molecule?
A: 14 folds

Q: And the IC50 ([9]; SARS-CoV-2 Spike:ACE2 IC50)?
A: 178 ± 14 nM

Q: And the “Mean Size (nm)” value [4]?
A: 45.9 ± 10 nm

Q: And the PI [4]?
A: 0.24

Q: And the IC50 [10]?
A: 18.4 ± 11 nM
